Measurements: patent US4786755A, “Diphenic acid monoamides” (Warner-Lambert Company, priority 1986, dated 1988)
pIC50: −log10 of the molar value.

Key:
[1] = system: Isolated Guinea Pig Lung Parenchyma; experiment: Smooth Muscle Receptor Agonism-Antagonism Activity Evaluations In Vitro (IVAS), LTC4-induced contraction; type: cell-based; conditions: Cavia porcellus, LTC4-induced contraction
Description: Smooth Muscle Receptor Agonism-Antagonism Activity Evaluations In Vitro (IVAS) Isolated Guinea Pig Lung Parenchyma
The potency of a test compound for receptor stimulation or antagonism, for example, can easily be determined since the concentration of the compound to which the muscle cell, or specialized responsive area on this cell, is exposed can be easily controlled and correlated with the recorded activity of muscle contraction or relaxation.
The procedures described herein are specifically concerned with the definition of a test drug action on isolated lung strips. Drug action is characterized either by an action per se on the tissues or by interaction with known smooth muscle receptor stimulants or antagonists.
Usually, the tests will be used to evaluate the ability of a test compound to antagonize the contraction induced by standard agonists in this case LTC4. A relative potency is derived by comparison with one of the standard blocking drugs. In caution, relative potencies of test compounds to known standards are valid only if full dose response curves are generated and the compound compared generate parallel dose/response curves with common maxima. Appropriate "within-trial" comparisons are also necessary.
Molecular antagonists compete with the agonist for the receptor. […] A physiological antagonist produces a response by action on a different receptor that causes an effect in opposition to the agonism.
A permanent isolated bath system is used which facilitates the vertical suspension of a segment of tissue in a small volume of a specific nutritive buffer. Frittered glass terminals provide dispersed bubbles of 95% oxygen and 5% carbon dioxide at the base of the individual tissue baths and the buffer reservoir. All baths and the reservoir are double-jacketed and water at 37° C. is circulated through the jacket of the baths to provide stable temperature regulation. The baths are arranged so that fresh solution from the reservoir passes through a jacketed glass coil to the base of the bath. The bubbling gas stirs the bath solution. During equilibration, fresh solution enters and excess solution is allowed to overflow. Unless a particular drug is required throughout the experiment and it is incorporated in the buffer, individual drugs are introduced directly into the bath by long hypodermic needles to the base of the bath without disturbing the tissue. Drugs are removed by rapidly draining the tissue bath from the bottom and refilling. Tissues are washed a minimum of six times. The emptying and refilling sequence takes only five seconds.
The contraction and relaxation of the smooth muscle preparation can be recorded either isotonically (change in length) or isometrically (change in tension). Isometric transducers are more sensitive and proportional. Isometric contractions are recorded electronically using Grass FT 0.03C force displacement transducers and Beckman Dynagraph recorders. The tissue is suspended vertically with one end of the segment anchored to the bottom of the bath and the other end attached to the mechanical electrical transducer muscle level. The electrical output of this transducer moves a pen on a moving chart in proportion to the force displacement.
Lung tissue is obtained from normal male guinea pigs. The heart and lungs are removed as a unit, placed in buffer, and the lungs are perfused with buffer by the spontaneously beating heart for several minutes.

[2] = target: T1, 5-lipoxygenase (Homo sapiens, UniProt P09917); experiment: 5-Lipoxygenase Assay Using Isolated Human Leukocytes (5LOA2); type: cell-based; conditions: 20 μM exogenous arachidonic acid; read-out: IC50 5LOA (20)*
T1 construct: endogenous in cells; host or cells: leukocytes isolated from fresh human blood
T1 sequence (P09917 1-674): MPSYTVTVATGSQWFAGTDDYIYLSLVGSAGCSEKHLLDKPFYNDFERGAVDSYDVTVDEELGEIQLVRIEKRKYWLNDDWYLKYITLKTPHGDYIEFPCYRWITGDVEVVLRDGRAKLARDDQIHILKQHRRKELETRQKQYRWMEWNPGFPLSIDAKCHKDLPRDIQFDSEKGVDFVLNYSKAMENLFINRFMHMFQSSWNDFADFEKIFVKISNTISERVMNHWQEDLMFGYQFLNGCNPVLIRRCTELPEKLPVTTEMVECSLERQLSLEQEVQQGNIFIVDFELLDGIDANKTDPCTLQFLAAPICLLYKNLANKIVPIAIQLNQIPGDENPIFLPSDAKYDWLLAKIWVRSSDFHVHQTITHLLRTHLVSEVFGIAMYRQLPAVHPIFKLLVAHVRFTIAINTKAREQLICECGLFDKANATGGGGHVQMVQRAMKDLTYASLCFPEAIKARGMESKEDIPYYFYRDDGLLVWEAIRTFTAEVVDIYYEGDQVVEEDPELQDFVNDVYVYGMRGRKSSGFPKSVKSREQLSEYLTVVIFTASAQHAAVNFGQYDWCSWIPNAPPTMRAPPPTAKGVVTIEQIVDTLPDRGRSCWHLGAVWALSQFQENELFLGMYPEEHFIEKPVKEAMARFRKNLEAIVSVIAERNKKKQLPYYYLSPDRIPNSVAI
Method: 5-Lipoxygenase Assay Using Isolated Human Leukocytes (5LOA2)
The formation of 5-HETE in human leukocytes is considered a measure of 5-lipoxygenase activity. The protocol is described in the following.
Fresh heparinized or EDTA treated human blood is mixed with 6% dextran-3% dextrose in isotonic saline in the ratio 0.25 ml dextran solution per 1.0 ml blood. After mixing the blood is allowed to sit at room temperature for about 90 minutes while the RBC's settle. During this period, the plasma is removed with a plastic pipette to nalgens tubes.
The plasma is centrifuged at 800 rpm ([…]) on the Beckman Td-b refrigerated centrifuge to remove the platelets (which remain in the supernatant). The pellet, consisting of leukocytes and erythrocytes, is treated with 10 ml 0.87% ammonium chloride at room temperature for four minutes, lysing the red cells. At the end of four minutes the cells are diluted with a 2× volume of phosphate buffered saline, pH 7.4, and centrifuged for ten minutes. The cells are washed three times with the phosphate buffered saline. Any of the pelleted cell matter which is not easily resuspended is discarded during the washings--the material contains platelets (12-lipoxygenase activity).
After washing, the cells are resuspended in phosphate buffered saline containing 1.0 mM calcium and 0.5 mM magnesium. After counting the cells are diluted to 1.5-2.0×10^7 leukocytes per milliliter.
To each polypropylene reaction tube is added 0.48 ml leukocytes in Ca-Mg phosphate buffered saline, pH 7.4; 1-5 μl test compound dissolved in DMSO and buffer; or DMSO for control tubes.
The tubes preincubate at 37° C. for five minutes.
The reaction is started by adding 20 μl of the following, 0.5 μl 20 mM arachidonic acid--final concentration=20 μm; 1 μl 5 mM calcium ionophore A23187--final concentration=10 μm; and 18.5 μl buffer.
The reaction proceeds for five minutes, then is stopped by adding 0.5 ml 0.5 mM ice cold Tris buffer, pH 8.0. The tubes are chilled on ice for ten minutes and then extracted three times with a total of 3.5 ml ethyl acetate (3.0 ml removed).
The tubes can be stored at this point. For extended storage, the tubes should be filled with nitrogen.
The ethyl acetate is evaporated with a Sorvall Speed-Vac. The residue is dissolved in ethanol. The tubes can also be stored at this point at -20° C. under nitrogen.
A portion of the ethanol solution is injected into the HPLC system for 5-HETE quantitation.
The HPLC system consists of Hewlett-Packard 1040A UV spectrophotometry system with an HP85 computer. Injections are made automatically with a Waters WISP 710B. The pump is a Spectra Physics SP8700. Peaks are measured with a Hewlett Packard 3390A integrator. An RP C-18 column is used. The solvent system is isocratic; the solvent is 70% methanol and 30% 0.01M sodium acetate, pH 5.7, pumped at 1.0 ml/min. The flow is monitored at 235 nm for 5-HETE quantitation. Using a 15 cm Alltech Nucleosil C-18 5 μM column provides for a sample turnaround time of about 16 minutes.
IC50 is calculated as the amount of test agent that causes 50% inhibition of the formation of 5-HETE relative to the control.

SMILES	inhibition at 3 µM ([1]; @ 3 μM)	pIC50 [2]	pIC50 [1]
O=C(O)c1ccccc1-c1ccccc1C(=O)Nc1ccc(CCCc2ccc(Cl)c(Cl)c2)cc1 [Example 1, [1,1'-Biphenyl]-2-carboxylic acid, 2'-[[[4-[3-(3,4-dichlorophenyl)propyl]phenyl]amino]carbonyl]-]	90%	5.17	–
O=C(O)c1ccccc1-c1ccccc1C(=O)Nc1ccc(CCc2ccc(Cl)c(Cl)c2)cc1 [Example 3, [1,1'-Biphenyl]-2-carboxylic acid, 2'-[[[4-[2-(3,4-dichlorophenyl)ethyl]phenyl]amino]carbonyl]-]	–	–	6.00
COc1ccc(CCc2ccc(NC(=O)c3ccccc3-c3ccccc3C(=O)O)cc2)cc1OC [Example 7, [1,1'-Biphenyl]-2-carboxylic acid, 2'-[[[4-[2-(3,4-dimethoxyphenyl)ethyl]phenyl]amino]carbonyl]-]	–	< 4.70	–
O=C(O)c1ccccc1-c1ccccc1C(=O)Nc1ccc(Cc2ccc(Cl)c(Cl)c2)cc1 [Example 9]	–	4.72	–
O=C(O)c1ccccc1-c1ccccc1C(=O)Nc1ccc(CCCCc2ccc(Cl)c(Cl)c2)cc1 [Example 15, [1,1'-Biphenyl]-2-carboxylic acid, 2'-[[[4-[4-(3,4-dichlorophenyl)butyl]phenyl]amino]carbonyl]-]	–	5.34	–
O=C(O)c1ccccc1-c1ccccc1C(=O)Nc1ccc(CCCc2ccccc2)cc1 [Example 16, [1,1'-Biphenyl]-2-carboxylic acid, 2'-[[[4-(3-phenylpropyl]phenyl]amino]carbonyl]-]	–	4.66	–
O=C(O)c1ccccc1-c1ccccc1C(=O)Nc1ccc(CCCCc2ccccc2)cc1 [Example 19, [1,1'-Biphenyl]-2-carboxylic acid, 2'-[[[4-(4-phenylbutyl)phenyl]amino]carbonyl]-]	–	5.14	–
